Assay results reported in patent US8541342B2, “Fungicidal substance combinations” (Bayer Cropsciene AG, priority 2007, dated 2013).

Assays:
Pyrenophora teres = Pyrenophora teres test (barley)/protective; conditions: protective spray on barley, evaluation 10 days after inoculation
Gibberella zeae = test: microbe, parasite or virus in culture; assay type: cell-based; conditions: Fusarium graminearum, 120 h, read-out: % efficacy

Row | Structure (SMILES) | Efficacy in % found (Pyrenophora teres; 62.5 g/ha) [%] | Efficacy in % found (Pyrenophora teres; 125 g/ha) [%] | Efficacy at 0.3 ppm (Gibberella zeae) [%]
1 | Cc1nn(C)c(F)c1C(=O)Nc1ccccc1C(C)CC(C)C (stereo not shown) [(I), N-[2-(1,3-Dimethylbutyl)phenyl]-5-fluoro-1,3-dimethyl-1H-pyrazole-4-carboxamide] | 67 | – | –
2 | COCC(=O)N(c1c(C)cccc1C)C(C)C(=O)OC (stereo not shown) [(III), Metalaxyl] | – | 22 | –
3 | CO/N=C(/C(=O)OC)c1ccccc1CO/N=C(\C)c1cccc(C(F)(F)F)c1 [Trifloxystrobin, trifloxystrobin] | 78 | – | 40
